# Data from patent US20250144205A1, “COMPOSITIONS AND METHODS FOR TREATING INFECTIOUS DISEASES” (priority 2022, published 2025).
# Test system: TSE-induced lung injury (TSE-LI)
# Assay: chronic tobacco smoke exposure induced lung injury (TSE-LI) in wild-type mice
# Type: in vivo
# Procedure: Recombinant full-length U5a protein (U5a^FL), extracellular domain of U5a^FL (U5a^ECD) and U5a^ECD-specific monoclonal antibody (U5a^mAb, the 17C9 1 anti-U5a antibody comprising the sequences of SEQ ID NOs. 204 and 211) mitigated chronic TS exposure (TSE) induced lung injury (TSE-LI) in wild-type (WT) mice. WT mice were kept in ambient AIR or exposed to tobacco smoke (TSE) for 4 h/day 5 days a week. After 16 weeks, WT mice with TSE-LI were left untreated (None) or treated with 2.5 mg/kg of U5a^FL, U5a^ECD and U5amAb 5 days a week for 4 weeks by IP injection. Total lung RNA were analyzed for MUC5AC (M5Ac) (FIG. 12A), FOXA2 (FIG. 12B) and surfactant protein-C(SP-C) (FIG. 12C) mRNA by qPCR. Lung sections of mice treated as in FIG. 12A were subjected to IHC analysis for M5Ac (FIG. 12D). We found increased expression of U5a in AECs and ATII cells in lungs of patients with COPD and mice with TSE-LI. […] In addition, increased surfactant protein-C(SP-C) indicates improved survival of ATII cells, which is otherwise reduced due to increased TSE-induced senescence and apoptosis of ATII cells seen in mice with TSE-LI left untreated.
substance,measurement,setting,value
U5a^ECD: extracellular domain of U5a^FL; ECD of UNC5A given as SEQ ID NO: 103,"MUC5AC (M5Ac) expression (lung mRNA by qPCR, IHC)","WT mice with TSE-LI, 2.5 mg/kg IP 5 days a week for 4 weeks, FIG. 12A, 12D",significantly inhibits
same,FOXA2 mRNA (qPCR),"WT mice with TSE-LI, 2.5 mg/kg IP 5 days a week for 4 weeks, FIG. 12B",inducing
same,surfactant protein-C (SP-C) mRNA (qPCR),"WT mice with TSE-LI, 2.5 mg/kg IP 5 days a week for 4 weeks, FIG. 12C",increased
same,chronic TS exposure (TSE) induced lung injury (TSE-LI),"WT mice, 2.5 mg/kg IP 5 days a week for 4 weeks after 16 weeks TSE",mitigated
